From ChEMBL document CHEMBL2073750, “Differential interaction of 3-hydroxy-3-methylglutaryl-coa reductase inhibitors with ABCB1, ABCC2, and OATP1B1” (Drug Metab Dispos, 2005)

Experiments:
Assay type in all cases: functional, cell-based
[1] = target: T1, Solute carrier organic anion transporter family member 1B1 (Homo sapiens, UniProt Q9Y6L6); experiment: TP_TRANSPORTER: inhibition of estradiol-17beta-glucuronide uptake(estradiol-17beta-glucuronide:0.02uM) in OATP1B1-expressing HEK293 cells
T1 sequence (Q9Y6L6 whole entry): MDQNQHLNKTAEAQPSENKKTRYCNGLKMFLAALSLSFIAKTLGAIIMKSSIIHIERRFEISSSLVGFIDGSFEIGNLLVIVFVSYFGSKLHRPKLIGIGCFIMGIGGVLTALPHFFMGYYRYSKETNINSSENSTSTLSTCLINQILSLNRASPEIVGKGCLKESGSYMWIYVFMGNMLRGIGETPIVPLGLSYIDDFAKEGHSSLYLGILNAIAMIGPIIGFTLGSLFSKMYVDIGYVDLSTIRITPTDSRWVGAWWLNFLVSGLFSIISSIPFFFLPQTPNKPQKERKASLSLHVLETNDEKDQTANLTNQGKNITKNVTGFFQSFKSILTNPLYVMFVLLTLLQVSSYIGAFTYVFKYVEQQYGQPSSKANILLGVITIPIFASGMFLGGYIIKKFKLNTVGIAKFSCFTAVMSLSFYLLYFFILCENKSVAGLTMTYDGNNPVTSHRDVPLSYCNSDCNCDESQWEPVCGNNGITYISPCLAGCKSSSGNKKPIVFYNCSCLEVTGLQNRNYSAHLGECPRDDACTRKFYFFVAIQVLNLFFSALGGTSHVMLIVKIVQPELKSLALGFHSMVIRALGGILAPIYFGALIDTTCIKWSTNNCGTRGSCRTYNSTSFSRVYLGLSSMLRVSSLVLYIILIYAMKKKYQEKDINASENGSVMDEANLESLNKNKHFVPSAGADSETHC

[2] = target: ATP-binding cassette sub-family C member 2 (Homo sapiens, UniProt Q92887); experiment: TP_TRANSPORTER: inhibition of calcein-AM efflux in MRP2-expressing MDCK cells
Sequence of ATP-binding cassette sub-family C member 2 (Q92887 whole entry): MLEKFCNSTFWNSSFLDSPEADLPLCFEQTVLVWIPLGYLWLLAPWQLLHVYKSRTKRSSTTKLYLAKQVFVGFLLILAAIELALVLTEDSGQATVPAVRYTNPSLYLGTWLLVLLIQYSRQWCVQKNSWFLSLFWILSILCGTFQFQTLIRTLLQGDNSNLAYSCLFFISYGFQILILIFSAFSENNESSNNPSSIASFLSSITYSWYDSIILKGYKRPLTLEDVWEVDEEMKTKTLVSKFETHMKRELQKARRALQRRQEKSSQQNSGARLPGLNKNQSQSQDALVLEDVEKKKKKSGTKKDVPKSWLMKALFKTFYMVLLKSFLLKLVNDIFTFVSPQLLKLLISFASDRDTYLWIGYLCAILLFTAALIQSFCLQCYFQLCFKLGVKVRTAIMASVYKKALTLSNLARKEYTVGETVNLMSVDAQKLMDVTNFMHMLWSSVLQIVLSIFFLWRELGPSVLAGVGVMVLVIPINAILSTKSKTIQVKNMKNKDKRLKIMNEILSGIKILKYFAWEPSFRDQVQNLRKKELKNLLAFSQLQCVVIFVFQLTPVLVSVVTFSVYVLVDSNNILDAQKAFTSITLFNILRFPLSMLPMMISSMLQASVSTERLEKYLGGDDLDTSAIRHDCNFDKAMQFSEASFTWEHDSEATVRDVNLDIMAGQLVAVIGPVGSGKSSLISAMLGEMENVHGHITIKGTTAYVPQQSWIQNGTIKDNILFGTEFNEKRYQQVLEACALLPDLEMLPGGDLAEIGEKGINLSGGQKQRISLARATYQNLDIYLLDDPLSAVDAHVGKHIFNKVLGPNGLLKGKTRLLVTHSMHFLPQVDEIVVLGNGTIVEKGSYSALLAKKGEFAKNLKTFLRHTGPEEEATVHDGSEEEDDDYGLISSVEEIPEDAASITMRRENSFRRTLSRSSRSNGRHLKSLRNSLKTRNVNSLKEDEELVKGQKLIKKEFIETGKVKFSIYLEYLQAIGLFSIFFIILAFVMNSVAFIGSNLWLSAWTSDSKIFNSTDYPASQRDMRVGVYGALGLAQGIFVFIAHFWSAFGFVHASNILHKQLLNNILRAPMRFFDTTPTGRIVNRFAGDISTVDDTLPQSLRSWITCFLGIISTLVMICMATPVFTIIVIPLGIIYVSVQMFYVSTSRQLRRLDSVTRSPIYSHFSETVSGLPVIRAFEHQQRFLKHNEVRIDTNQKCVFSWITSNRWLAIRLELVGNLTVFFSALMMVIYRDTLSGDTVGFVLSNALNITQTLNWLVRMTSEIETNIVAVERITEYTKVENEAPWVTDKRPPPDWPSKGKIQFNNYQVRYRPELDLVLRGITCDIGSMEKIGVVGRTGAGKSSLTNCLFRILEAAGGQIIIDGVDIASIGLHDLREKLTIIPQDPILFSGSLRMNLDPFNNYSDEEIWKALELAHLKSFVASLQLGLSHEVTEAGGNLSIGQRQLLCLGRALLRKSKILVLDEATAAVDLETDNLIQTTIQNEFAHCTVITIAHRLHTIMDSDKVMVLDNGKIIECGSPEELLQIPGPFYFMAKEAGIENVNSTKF

[3] = target: ATP-dependent translocase ABCB1 (Homo sapiens, UniProt P08183); experiment: TP_TRANSPORTER: inhibition of calcein-AM efflux in MDR1-expressing MDCK cells
Sequence of ATP-dependent translocase ABCB1 (P08183 whole entry): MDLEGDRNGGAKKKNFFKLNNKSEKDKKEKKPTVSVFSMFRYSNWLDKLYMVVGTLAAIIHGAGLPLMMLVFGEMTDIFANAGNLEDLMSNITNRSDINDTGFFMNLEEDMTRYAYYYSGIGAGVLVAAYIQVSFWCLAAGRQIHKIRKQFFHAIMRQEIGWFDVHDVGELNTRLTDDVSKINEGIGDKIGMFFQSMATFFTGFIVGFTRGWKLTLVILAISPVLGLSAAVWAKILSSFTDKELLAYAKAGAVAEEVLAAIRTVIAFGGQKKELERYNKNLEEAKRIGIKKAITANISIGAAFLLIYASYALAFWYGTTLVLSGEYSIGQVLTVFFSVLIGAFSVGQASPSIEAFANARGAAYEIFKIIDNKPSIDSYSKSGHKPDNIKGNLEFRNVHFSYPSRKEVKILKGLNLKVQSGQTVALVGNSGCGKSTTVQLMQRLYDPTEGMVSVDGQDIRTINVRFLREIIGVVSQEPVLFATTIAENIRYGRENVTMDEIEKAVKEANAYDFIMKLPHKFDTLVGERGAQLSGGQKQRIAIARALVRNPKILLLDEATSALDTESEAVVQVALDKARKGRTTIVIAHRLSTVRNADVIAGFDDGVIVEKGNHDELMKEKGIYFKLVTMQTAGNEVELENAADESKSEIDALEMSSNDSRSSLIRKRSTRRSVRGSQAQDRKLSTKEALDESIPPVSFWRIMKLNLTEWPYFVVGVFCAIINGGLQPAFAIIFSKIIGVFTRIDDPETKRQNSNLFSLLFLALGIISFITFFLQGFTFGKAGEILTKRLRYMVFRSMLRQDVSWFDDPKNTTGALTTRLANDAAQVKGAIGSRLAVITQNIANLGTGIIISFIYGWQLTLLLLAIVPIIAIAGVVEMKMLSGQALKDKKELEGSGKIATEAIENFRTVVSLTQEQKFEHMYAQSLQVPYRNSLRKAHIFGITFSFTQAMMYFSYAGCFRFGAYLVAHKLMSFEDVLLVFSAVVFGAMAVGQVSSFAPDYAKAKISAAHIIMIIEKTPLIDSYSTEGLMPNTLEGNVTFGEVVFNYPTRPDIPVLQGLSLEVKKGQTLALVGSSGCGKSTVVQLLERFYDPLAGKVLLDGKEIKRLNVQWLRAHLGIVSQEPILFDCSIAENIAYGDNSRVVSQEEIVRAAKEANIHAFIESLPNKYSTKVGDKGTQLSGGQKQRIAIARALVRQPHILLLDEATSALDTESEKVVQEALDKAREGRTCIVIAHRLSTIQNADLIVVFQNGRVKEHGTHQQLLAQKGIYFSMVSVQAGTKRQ

Compound | IC50 ([1]; read-out: IC50) [µM] | IC50 ([2]; mdck) | IC50 ([3]; mdck) | IC50 ([2]; read-out: IC50) [µM] | IC50 ([3]; read-out: IC50) [µM] | IC50 ([1]; hek293)
CC[C@H](C)C(=O)O[C@H]1C[C@@H](C)C=C2C=C[C@H](C)[C@H](CC[C@@H](O)C[C@@H](O)CC(=O)O)[C@H]21 [LOVASTATIN ACID] | 4 | is not an inhibitor [IC50=-(>100uM)] | is not an inhibitor [IC50=-(>100uM)] |  |  | 
CC(C)c1c(C(=O)Nc2ccccc2)c(-c2ccccc2)c(-c2ccc(F)cc2)n1CC[C@@H](O)C[C@@H](O)CC(=O)O [ATORVASTATIN] |  | is not an inhibitor [IC50=-(>100uM)] | is not an inhibitor [IC50=-(>100uM)] |  |  | 
CCC(C)(C)C(=O)O[C@H]1C[C@@H](C)C=C2C=C[C@H](C)[C@H](CC[C@@H](O)C[C@@H](O)CC(=O)O)[C@H]21 [TENIVASTATIN] | 3.6 | is not an inhibitor [IC50=-(>100uM)] | is not an inhibitor [IC50=-(>100uM)] |  |  | 

Continued, values first:

IC50 ([1]; read-out: IC50) [µM] | IC50 ([2]; mdck) | IC50 ([3]; mdck) | IC50 ([2]; read-out: IC50) [µM] | IC50 ([3]; read-out: IC50) [µM] | IC50 ([1]; hek293) | Compound
28 | is not an inhibitor [IC50=-(>33uM)] |  |  |  |  | CC[C@H](C)C(=O)O[C@H]1C[C@@H](C)C=C2C=C[C@H](C)[C@H](CC[C@@H]3C[C@@H](O)CC(=O)O3)[C@H]21 [LOVASTATIN]
 |  |  | 21 |  |  | CC[C@]1(O)C[C@@H]2CN(CCc3c([nH]c4ccccc34)[C@@](C(=O)OC)(c3cc4c(cc3OC)N(C)[C@H]3[C@@](O)(C(=O)OC)[C@H](OC(C)=O)[C@]5(CC)C=CCN6CC[C@]43[C@@H]65)C2)C1 [VINBLASTINE]
2.6 |  |  | 15 | 14 |  | CC(C)c1c(C(=O)Nc2ccccc2)c(-c2ccccc2)c(-c2ccc(F)cc2)n1CC[C@@H]1C[C@@H](O)CC(=O)O1 [ATORVASTATIN LACTONE]
 | is not an inhibitor [IC50=-(>100uM)] | is not an inhibitor [IC50=-(>100uM)] |  |  | is not an inhibitor [IC50=-(>100uM)] | CC[C@H](C)C(=O)O[C@H]1C[C@H](O)C=C2C=C[C@H](C)[C@H](CC[C@@H](O)C[C@@H](O)CC(=O)O)[C@H]21 [PRAVASTATIN]
0.23 |  |  |  |  |  | CO[C@H]1/C=C/O[C@@]2(C)Oc3c(C)c(O)c4c(O)c(cc(O)c4c3C2=O)NC(=O)/C(C)=C\C=C\[C@H](C)[C@H](O)[C@@H](C)[C@@H](O)[C@@H](C)[C@H](OC(C)=O)[C@@H]1C [RIFAMYCIN]
